# Measurements published in PMC4114247 (Cancer research, 2009).
# Entries after “also recorded” stand apart in the source; their conditions may differ.
# Legend:
# LNCaP cells = assay: Internalization into LNCaP cells; assay type: cell-based, human; conditions: 100 nM, 0–2 hours
# [1] = system: NCr nude mice bearing LNCaP xenografts; assay: Mouse tissue distribution, LNCaP xenografts; assay type: in vivo; conditions: for Ratio Tumor:Blood / Ratio Tumor:Skeletal Muscle: ratio based on the %ID/g
# [2] = system: NCr-nu/nu mice bearing PC3 xenografts; assay: Mouse tissue distribution, PC3 xenografts; assay type: in vivo; conditions: PSMA deficient PC3 xenografts
# [3] = system: mice bearing LNCaP xenografts; assay: SPECT/CT imaging, LNCaP xenografts; assay type: in vivo, mouse; conditions: 4 hr after injection
# [4] = Stability in liver microsomes; assay type: in vitro ADME; conditions: data not shown
# [5] = Stability in blood plasma; assay type: in vitro ADME; conditions: data not shown
# PC3 PIP (PSMA +) tumors = conditions: mouse, in vivo
# [6] = system: PC3 cells (PSMA negative); assay: Direct binding to PC3 cells; conditions: 3 nM radioligand, 1 hour; PC3 cells lack PSMA
# [7] = molecular target: LNCaP cells (PSMA positive) (Homo sapiens, UniProt Q04609); assay: Direct binding to LNCaP cells
# [8] = co-injected with 50 mg/kg PMPA, 2 hours
# LNCaP cells (PSMA positive), sequence (Q04609 whole entry): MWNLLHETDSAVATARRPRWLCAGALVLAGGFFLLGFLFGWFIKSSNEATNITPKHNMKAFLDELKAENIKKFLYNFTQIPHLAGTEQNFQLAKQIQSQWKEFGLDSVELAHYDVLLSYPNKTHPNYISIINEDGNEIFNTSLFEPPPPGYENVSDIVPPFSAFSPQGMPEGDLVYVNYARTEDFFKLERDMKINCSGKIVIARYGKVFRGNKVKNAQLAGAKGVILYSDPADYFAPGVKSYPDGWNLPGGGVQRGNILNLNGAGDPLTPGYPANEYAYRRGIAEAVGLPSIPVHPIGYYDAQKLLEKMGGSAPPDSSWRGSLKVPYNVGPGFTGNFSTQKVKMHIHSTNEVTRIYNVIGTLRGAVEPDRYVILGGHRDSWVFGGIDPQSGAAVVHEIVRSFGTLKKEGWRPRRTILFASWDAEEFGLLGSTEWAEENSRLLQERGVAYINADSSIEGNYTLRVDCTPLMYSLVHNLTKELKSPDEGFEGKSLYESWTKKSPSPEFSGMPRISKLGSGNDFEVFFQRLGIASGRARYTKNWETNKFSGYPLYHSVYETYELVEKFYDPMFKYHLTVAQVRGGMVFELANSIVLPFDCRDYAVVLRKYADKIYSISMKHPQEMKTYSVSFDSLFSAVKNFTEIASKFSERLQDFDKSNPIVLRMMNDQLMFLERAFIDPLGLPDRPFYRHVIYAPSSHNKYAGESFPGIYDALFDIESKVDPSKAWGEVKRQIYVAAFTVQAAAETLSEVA
smiles,measurement,setting,value
"O=C(O)CC[C@H](NC(=O)N[C@@H](CCCCNCc1ccc(I)cc1)C(=O)O)C(=O)O [[^123I]MIP-1072, (S)-2-(3-((S)-1-carboxy-5-(4–iodobenzylamino)pentyl)ureido)pentanedioic acid]",Internalization into LNCaP cells,LNCaP cells; 4 °C,but not at 4 °C
same,Internalization into LNCaP cells,LNCaP cells; 37 °C,internalized; also recorded: time dependent increase in radioactivity associated with the cellular pellet
same,Tissue distribution: Adipose,[1]; 0.25 hr after injection,1.45 ± 0.27 %ID/g
same,Tissue distribution: Blood,[1]; 0.25 hr after injection,2.59 ± 0.24 %ID/g
same,Tissue distribution: Bone,[1]; 0.25 hr after injection,0.69 ± 0.15 %ID/g
same,Tissue distribution: Brain,[1]; 0.25 hr after injection,0.08 ± 0.02 %ID/g
same,Tissue distribution: Heart,[1]; 0.25 hr after injection,1.25 ± 0.22 %ID/g
same,Tissue distribution: Kidneys,[1]; 0.25 hr after injection,90.1 ± 20.2 %ID/g
same,Tissue distribution: Lg Intestine,[1]; 0.25 hr after injection,0.41 ± 0.08 %ID/g
same,Tissue distribution: Liver,[1]; 0.25 hr after injection,2.26 ± 0.56 %ID/g
same,Tissue distribution: Lungs,[1]; 0.25 hr after injection,2.34 ± 0.61 %ID/g
same,Tissue distribution: Sk.Muscle,[1]; 0.25 hr after injection,0.8 ± 0.18 %ID/g
same,Tissue distribution: Sm Intestine,[1]; 0.25 hr after injection,0.83 ± 0.1 %ID/g
same,Tissue distribution: Spleen,[1]; 0.25 hr after injection,4.28 ± 1.67 %ID/g
same,Tissue distribution: Stomach,[1]; 0.25 hr after injection,0.69 ± 0.17 %ID/g
same,Tissue distribution: Testes,[1]; 0.25 hr after injection,0.91 ± 0.24 %ID/g
same,Tissue distribution: Tumor (LNCaP xenograft),[1]; 0.25 hr after injection,12.9 ± 3.3 %ID/g
same,Ratio Tumor:Blood,[1]; 0.25 hr,4.97
same,Ratio Tumor:Skeletal Muscle,[1]; 0.25 hr,16.2
same,Tissue distribution: Adipose,[1]; 1 hr after injection,0.74 ± 0.28 %ID/g
same,Tissue distribution: Blood,[1]; 1 hr after injection,0.47 ± 0.15 %ID/g
same,Tissue distribution: Bone,[1]; 1 hr after injection,0.25 ± 0.07 %ID/g
same,Tissue distribution: Brain,[1]; 1 hr after injection,0.04 ± 0.01 %ID/g
same,Tissue distribution: Heart,[1]; 1 hr after injection,0.31 ± 0.08 %ID/g
same,Tissue distribution: Kidneys,[1]; 1 hr after injection,151 ± 26 %ID/g
same,Tissue distribution: Lg Intestine,[1]; 1 hr after injection,0.15 ± 0.04 %ID/g
same,Tissue distribution: Liver,[1]; 1 hr after injection,2.22 ± 0.43 %ID/g
same,Tissue distribution: Lungs,[1]; 1 hr after injection,0.86 ± 0.24 %ID/g
same,Tissue distribution: Sk.Muscle,[1]; 1 hr after injection,0.35 ± 0.17 %ID/g
same,Tissue distribution: Sm Intestine,[1]; 1 hr after injection,0.41 ± 0.12 %ID/g
same,Tissue distribution: Spleen,[1]; 1 hr after injection,1.91 ± 0.85 %ID/g
same,Tissue distribution: Stomach,[1]; 1 hr after injection,0.26 ± 0.03 %ID/g
same,Tissue distribution: Testes,[1]; 1 hr after injection,0.58 ± 0.19 %ID/g
same,Tissue distribution: Tumor (LNCaP xenograft),[1]; 1 hr after injection,17.4 ± 6.3 %ID/g
same,Ratio Tumor:Blood,[1]; 1 hr,37.1
same,Ratio Tumor:Skeletal Muscle,[1]; 1 hr,50.0
same,Tissue distribution: Adipose,[1]; 2 hr after injection,0.46 ± 0.27 %ID/g
same,Tissue distribution: Blood,[1]; 2 hr after injection,0.21 ± 0.04 %ID/g
same,Tissue distribution: Bone,[1]; 2 hr after injection,0.17 ± 0.08 %ID/g
same,Tissue distribution: Brain,[1]; 2 hr after injection,0.04 ± 0.01 %ID/g
same,Tissue distribution: Heart,[1]; 2 hr after injection,0.19 ± 0.07 %ID/g
same,Tissue distribution: Kidneys,[1]; 2 hr after injection,159 ± 46 %ID/g
same,Tissue distribution: Lg Intestine,[1]; 2 hr after injection,0.28 ± 0.12 %ID/g
same,Tissue distribution: Liver,[1]; 2 hr after injection,2.84 ± 0.63 %ID/g
same,Tissue distribution: Lungs,[1]; 2 hr after injection,0.4 ± 0.19 %ID/g
same,Tissue distribution: Sk.Muscle,[1]; 2 hr after injection,0.2 ± 0.1 %ID/g
same,Tissue distribution: Sm Intestine,[1]; 2 hr after injection,0.35 ± 0.1 %ID/g
same,Tissue distribution: Spleen,[1]; 2 hr after injection,0.75 ± 0.36 %ID/g
same,Tissue distribution: Stomach,[1]; 2 hr after injection,0.21 ± 0.06 %ID/g
same,Tissue distribution: Testes,[1]; 2 hr after injection,0.43 ± 0.16 %ID/g
same,Tissue distribution: Tumor (LNCaP xenograft),[1]; 2 hr after injection,14.0 ± 6.9 %ID/g
same,Ratio Tumor:Blood,[1]; 2 hr,65.4
same,Ratio Tumor:Skeletal Muscle,[1]; 2 hr,70.2
same,Tissue distribution: Adipose,[1]; 4 hr after injection,0.12 ± 0.16 %ID/g
same,Tissue distribution: Bone,[1]; 4 hr after injection,0.1 ± 0.18 %ID/g
same,Tissue distribution: Heart,[1]; 4 hr after injection,0.01 ± 0.02 %ID/g
same,Tissue distribution: Kidneys,[1]; 4 hr after injection,35.8 ± 18.7 %ID/g
same,Tissue distribution: Lg Intestine,[1]; 4 hr after injection,0.48 ± 0.13 %ID/g
same,Tissue distribution: Liver,[1]; 4 hr after injection,2.17 ± 0.67 %ID/g
same,Tissue distribution: Lungs,[1]; 4 hr after injection,0.08 ± 0.04 %ID/g
same,Tissue distribution: Sk.Muscle,[1]; 4 hr after injection,0.08 ± 0.1 %ID/g
same,Tissue distribution: Sm Intestine,[1]; 4 hr after injection,0.24 ± 0.07 %ID/g
same,Tissue distribution: Spleen,[1]; 4 hr after injection,0.16 ± 0.12 %ID/g
same,Tissue distribution: Stomach,[1]; 4 hr after injection,0.11 ± 0.05 %ID/g
same,Tissue distribution: Testes,[1]; 4 hr after injection,0.26 ± 0.17 %ID/g
same,Tissue distribution: Tumor (LNCaP xenograft),[1]; 4 hr after injection,13.7 ± 3.1 %ID/g
same,Ratio Tumor:Blood,[1]; 4 hr,220
same,Ratio Tumor:Skeletal Muscle,[1]; 4 hr,182
same,Tissue distribution: Adipose,[1]; 8 hr after injection,0.04 ± 0.11 %ID/g
same,Tissue distribution: Blood,[1]; 8 hr after injection,0.06 ± 0.03 %ID/g
same,Tissue distribution: Bone,[1]; 8 hr after injection,0.04 ± 0.04 %ID/g
same,Tissue distribution: Brain,[1]; 8 hr after injection,0.02 ± 0.01 %ID/g
same,Tissue distribution: Heart,[1]; 8 hr after injection,0.05 ± 0.04 %ID/g
same,Tissue distribution: Kidneys,[1]; 8 hr after injection,21.5 ± 25.5 %ID/g
same,Tissue distribution: Lg Intestine,[1]; 8 hr after injection,0.72 ± 0.22 %ID/g
same,Tissue distribution: Liver,[1]; 8 hr after injection,1.78 ± 0.4 %ID/g
same,Tissue distribution: Lungs,[1]; 8 hr after injection,0.06 ± 0.03 %ID/g
same,Tissue distribution: Sk.Muscle,[1]; 8 hr after injection,0.02 ± 0.04 %ID/g
same,Tissue distribution: Sm Intestine,[1]; 8 hr after injection,0.27 ± 0.06 %ID/g
same,Tissue distribution: Spleen,[1]; 8 hr after injection,0.18 ± 0.11 %ID/g
same,Tissue distribution: Stomach,[1]; 8 hr after injection,0.21 ± 0.08 %ID/g
same,Tissue distribution: Testes,[1]; 8 hr after injection,0.18 ± 0.14 %ID/g
same,Tissue distribution: Tumor (LNCaP xenograft),[1]; 8 hr after injection,9.74 ± 3.48 %ID/g
same,Ratio Tumor:Blood,[1]; 8 hr,176
same,Ratio Tumor:Skeletal Muscle,[1]; 8 hr,446
same,Tissue distribution: Adipose,[1]; 24 hr after injection,0.01 ± 0.11 %ID/g
same,Tissue distribution: Blood,[1]; 24 hr after injection,0.01 ± 0 %ID/g
same,Tissue distribution: Bone,[1]; 24 hr after injection,0.03 ± 0.05 %ID/g
same,Tissue distribution: Brain,[1]; 24 hr after injection,0.02 ± 0.01 %ID/g
same,Tissue distribution: Heart,[1]; 24 hr after injection,0.01 ± 0.05 %ID/g
same,Tissue distribution: Kidneys,[1]; 24 hr after injection,1.1 ± 0.6 %ID/g
same,Tissue distribution: Lg Intestine,[1]; 24 hr after injection,0.37 ± 0.18 %ID/g
same,Tissue distribution: Liver,[1]; 24 hr after injection,0.29 ± 0.05 %ID/g
same,Tissue distribution: Lungs,[1]; 24 hr after injection,0.05 ± 0.06 %ID/g
same,Tissue distribution: Sk.Muscle,[1]; 24 hr after injection,0.08 ± 0.04 %ID/g
same,Tissue distribution: Sm Intestine,[1]; 24 hr after injection,0.07 ± 0.02 %ID/g
same,Tissue distribution: Spleen,[1]; 24 hr after injection,0.14 ± 0.1 %ID/g
same,Tissue distribution: Stomach,[1]; 24 hr after injection,0.11 ± 0.05 %ID/g
same,Tissue distribution: Testes,[1]; 24 hr after injection,0.05 ± 0.04 %ID/g
same,Tissue distribution: Tumor (LNCaP xenograft),[1]; 24 hr after injection,5.03 ± 1.35 %ID/g
same,Ratio Tumor:Blood,[1]; 24 hr,411
same,Ratio Tumor:Skeletal Muscle,[1]; 24 hr,64.5
same,tumor:blood ratio,[1]; after only a few hours,> 100
same,tumor:skeletal muscle ratio,[1]; after only a few hours,> 100
same,Thyroid content (deiodination),[1]; all time points,< 1 % of the total injected dose
same,Binding to LNCaP tumor xenografts with co-injected PMPA,[1]; [8],blocked
same,Binding to kidneys with co-injected PMPA,[1]; [8],blocked
same,Blood-brain barrier crossing,[1]; from little uptake in the brain,do not cross the blood-brain barrier
same,Route of clearance,"[1]; mouse, in vivo",primarily through urinary excretion
same,Localization to PC3 tumors,[2],not to the PSMA deficient PC3 tumors
same,SPECT/CT uptake in kidney and LNCaP tumor,[3],high uptake
same,Stability in liver microsomes,[4],stable
same,Stability in blood plasma,[5],stable
same,SPECT/CT detection of PC3 PIP (PSMA +) tumors,PC3 PIP (PSMA +) tumors,detected
same,Binding to PC3 cells,[6],no binding; also recorded: not to the PSMA deficient PC3 cells
same,Binding to LNCaP cells in the presence of non-radiolabeled compound or PMPA,[7]; 3 nM radioligand with 10 µM non-radiolabeled compound or 10 µM PMPA,abolished; also recorded: inhibited
same,Binding to LNCaP cells,"[7]; 3 nM radioligand, 1 hour, room temperature",bound
